{"source": "paper PMC5678437", "about": "“A new antagonist for CCR4 attenuates allergic lung inflammation in a mouse model of asthma” (Scientific Reports, 2017)", "key": {"CCR1": {"molecular_target": "T1, CCR1 (Homo sapiens, UniProt P32246)", "T1 construct": "expressed in transfected cells; host or cells: HEK293; plasmid gift of Dr. Philip M. Murphy (NIAID, NIH)", "T1 sequence (P32246 1-355)": "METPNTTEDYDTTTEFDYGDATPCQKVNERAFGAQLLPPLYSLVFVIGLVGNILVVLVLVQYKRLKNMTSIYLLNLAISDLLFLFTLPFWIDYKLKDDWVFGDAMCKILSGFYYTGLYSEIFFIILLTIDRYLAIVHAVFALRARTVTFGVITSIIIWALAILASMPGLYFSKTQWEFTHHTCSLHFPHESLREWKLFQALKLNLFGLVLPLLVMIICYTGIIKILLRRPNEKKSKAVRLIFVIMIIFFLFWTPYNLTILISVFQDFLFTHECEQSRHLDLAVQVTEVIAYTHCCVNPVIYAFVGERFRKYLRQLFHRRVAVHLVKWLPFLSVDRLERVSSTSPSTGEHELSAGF", "assay": "Chemotaxis assay for receptor specificity, HEK293-CCR1", "format": "cell-based", "conditions": "compound as chemoattractant in lower chamber, 0.2, 1, 5, 25 μM", "procedure": "(§1) HEK293 cells were transfected with different chemokine receptors. Compound 8a with DMSO was diluted to 0.2 mM, 1 mM, 5 mM and 25 mM, and then we used RPMI 1640 medium containing 0.1% BSA for dilution. The final concentration is: 0.2 μM, 1 μM, 5 μM and 25 μM. DMSO was also diluted 1000-fold with 0.1% BSA RPMI 1640 medium. Chemokines was also diluted to an appropriate concentration. The dilutions of Compound 8a, 1‰ DMSO, the corresponding chemokines of different receptors and 0.1% BSA RPMI 1640 medium were placed in the lower chambers (27.5 μl/well). The transfected HEK293 cells were resuspended in the same medium at a density of 1 × 10^6 cells/ml and added to the upper chambers (55 μl/well)."}, "CCR3": {"molecular_target": "T2, CCR3 (Homo sapiens, UniProt P51677)", "T2 sequence (P51677 1-355)": "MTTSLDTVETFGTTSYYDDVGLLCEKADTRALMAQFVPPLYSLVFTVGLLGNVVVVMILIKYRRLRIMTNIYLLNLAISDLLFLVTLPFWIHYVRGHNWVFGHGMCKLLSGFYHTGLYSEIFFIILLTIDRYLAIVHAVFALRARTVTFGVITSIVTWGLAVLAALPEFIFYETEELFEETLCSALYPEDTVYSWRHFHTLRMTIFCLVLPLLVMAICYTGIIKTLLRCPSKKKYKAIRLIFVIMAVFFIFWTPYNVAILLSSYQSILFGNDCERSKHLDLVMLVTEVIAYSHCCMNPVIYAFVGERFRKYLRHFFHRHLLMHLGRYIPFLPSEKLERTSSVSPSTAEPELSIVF", "assay": "Chemotaxis assay for receptor specificity, HEK293-CCR3", "format": "cell-based", "conditions": "compound as chemoattractant in lower chamber, 0.2, 1, 5, 25 μM", "procedure": "as §1"}, "CXCR3": {"molecular_target": "T3, CXCR3 (Homo sapiens, UniProt P49682)", "T3 construct": "expressed in transfected cells; host or cells: HEK293; plasmid from Chinese National Human Genome Center", "T3 sequence (P49682 1-415 isoform P49682-2)": "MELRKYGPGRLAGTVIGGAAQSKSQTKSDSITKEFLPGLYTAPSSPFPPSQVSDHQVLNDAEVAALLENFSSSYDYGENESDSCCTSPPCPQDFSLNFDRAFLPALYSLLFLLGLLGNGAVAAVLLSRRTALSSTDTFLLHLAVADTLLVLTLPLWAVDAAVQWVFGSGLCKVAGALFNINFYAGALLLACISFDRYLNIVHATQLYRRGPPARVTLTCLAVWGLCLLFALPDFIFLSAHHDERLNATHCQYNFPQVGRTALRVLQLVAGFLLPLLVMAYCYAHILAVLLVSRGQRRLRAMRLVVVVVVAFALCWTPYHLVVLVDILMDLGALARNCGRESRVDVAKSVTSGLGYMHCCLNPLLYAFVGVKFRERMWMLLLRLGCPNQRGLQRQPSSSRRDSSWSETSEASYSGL", "assay": "Chemotaxis assay for receptor specificity, HEK293-CXCR3", "format": "cell-based", "conditions": "compound as chemoattractant in lower chamber, 0.2, 1, 5, 25 μM", "procedure": "as §1"}, "HEK293-CCR4 cells": {"test_system": "HEK293-CCR4 cells", "assay": "MTT assay", "format": "cell-based", "conditions": "1, 2, 4, 8, 16 μM, till the higher concentration (16 μM), 48 h", "procedure": "pcDI-CCR4-transfected HEK293 cells, at the density of 800 cells /well, were plated overnight in 96-well plates. After plated overnight, different concentrations of compound 22 and compound 8a were added in cells and the final concentrations of these two compounds were: 1 μM, 2 μM, 4 μM, 8 μM and 16 μM. We set four wells for cells in each group which were incubated with each concentration of the compounds, and the cells were cultured for 48 h or 72 h. At 48 h or 72 h, 10 μl of the 5 mM MTT were added in cells and 100 μl of cell lysis buffer were added 4–6 h later. After added cell lysis buffer for an hour, microplate autoreader were used for measuring optical density (OD) of cells at 570 nm, and the ratio of OD in each group and that of DMSO group were valued as cell survival rates of each group."}, "[1]": {"test_system": "OVA-induced asthmatic mice", "assay": "BALF total cell and cell differential counts in OVA-induced asthmatic mice", "format": "in vivo, BALB/c mice", "conditions": "for total cells count in BALF: vs vehicle", "procedure": "Male BALB/c 6 week old mice were purchased from the Experimental Animal Center of Zhejiang University. All mice were raised in a specific pathogen-free animal facility. All animal experiments were carried out according to the guidelines for the care and use of laboratory animals and were approved by the ethics committee of Zhejiang University and Peking University, China.\nMice were sensitized and challenged with chicken egg OVA (sigma-Aldrich, St Louis, MO, USA) as described in details previously. Briefly, after sensitized by intraperitoneal injection of 100 μl (80 μg) OVA in 100 μl alum (Pierce, Rockford, IL, USA) on days 0 and 14, mice were exposure to 1% OVA aerosols for 40 min on days 24–26. Control mice were injected intraperitoneally with saline and exposed to saline aerosols.\nCompound 8a was dissolved in saline with DMSO (0.5%). Half an hour before each OVA challenge, the groups of mice treated with various doses of compound 8a (0.2, 1, 5 mg) inhaled aerosolized compound 8a for 45 min on days 24–26. Compound 8a aerosols were produced by using a Plexiglas chamber and ultrasonic nebulizer. While the budesonide (BUD) group were administered with 5 mg budesonide, and the vehicle group were treated with compound-dissolved vehicle. The Saline was treated as the control.\nTwenty-four hours after the last exposure, collection of BALF and cell count was performed as previously described. Briefly, lavage was performed by instilling 0.4 ml PBS into lungs and with drawn to collect the cells three times. Total BALF cells were counted. After be centrifuged, the remaining cells was spun onto glass slides, and stained with Wright–Giemsa stain. Differential counts were evaluated by counting 400 total cells."}, "[2]": {"conditions": "5 mg inhaled aerosol, compared with vehicle treated group"}, "[3]": {"conditions": "compound 8a 0.2, 1, 5 mg, budesonide 5 mg, inhaled aerosol"}}, "data": [{"smiles": "O=C(C1CCCCN1)N1CCN(c2nc(Cl)cc(NCc3ccc(Cl)cc3Cl)n2)CC1", "note": "(centres unmarked) [compound 8a, {4-[4-Chloro-6-(2,4-dichloro-benzylamino)-pyrimidin-2-yl]-piperazin-1-yl}-piperidin-2-yl-methanone]", "values": [{"measurement": "chemotaxis effect of the compound on HEK293-CCR1", "setting": "CCR1", "value": "didn’t exert chemotaxis effects"}, {"measurement": "chemotaxis effect of the compound on HEK293-CCR3", "setting": "CCR3", "value": "didn’t exert chemotaxis effects"}, {"measurement": "chemotaxis effect of the compound on HEK293-CXCR3", "setting": "CXCR3", "value": "didn’t exert chemotaxis effects"}, {"measurement": "cytotoxicity (MTT)", "setting": "HEK293-CCR4 cells", "value": "no obvious cytotoxicity"}, {"measurement": "total cells count in BALF", "setting": "[1]; 0.2 mg inhaled aerosol", "value": "marginal"}, {"measurement": "total cells count in BALF", "setting": "[1]; 1 mg inhaled aerosol", "value": "remarkably inhibitory effect"}, {"measurement": "absolute number of eosinophils in BALF", "setting": "[1]; [2]", "value": "significantly decreased"}, {"measurement": "absolute number of lymphocytes in BALF", "setting": "[1]; [2]", "value": "significantly decreased"}, {"measurement": "total cells count in BALF", "setting": "[1]; 5 mg inhaled aerosol", "value": "remarkably inhibitory effect"}, {"measurement": "number of macrophages in BALF", "setting": "[1]; [3]", "value": "neither compound 8a nor budesonide affect"}, {"measurement": "number of neutrophils in BALF", "setting": "[1]; [3]", "value": "neither compound 8a nor budesonide affect"}]}]}
